{"source": "patent US6271239A", "about": "“Delta opioid receptor-selective benzylidene-substituted morphinans” (Regents of the University of Minnesota, priority 1995, dated 2001)", "key": {"[1]": {"target": "T1, δ2 opioid receptor (Mus musculus, UniProt P32300)", "T1 construct": "from tissue; host or cells: live mouse (BNTX i.c.v.)", "T1 sequence (P32300 whole entry)": "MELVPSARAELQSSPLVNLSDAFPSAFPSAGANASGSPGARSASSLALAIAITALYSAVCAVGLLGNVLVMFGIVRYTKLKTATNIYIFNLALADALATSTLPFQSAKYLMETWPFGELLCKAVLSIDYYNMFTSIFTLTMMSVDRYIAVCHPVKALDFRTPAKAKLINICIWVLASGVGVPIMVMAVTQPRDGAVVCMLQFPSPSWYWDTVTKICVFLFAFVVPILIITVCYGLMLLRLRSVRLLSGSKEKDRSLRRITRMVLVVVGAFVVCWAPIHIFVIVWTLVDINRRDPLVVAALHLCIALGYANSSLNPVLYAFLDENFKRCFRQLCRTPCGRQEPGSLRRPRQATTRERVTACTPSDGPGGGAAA", "test": "Mouse tail flick antinociception, antagonism of DSLET", "assay_type": "in vivo", "settings": "BNTX 6.25 pmol/i.c.v./mouse", "procedure": "(§1) The antagonist effect of BNTX on antinociception was evaluated in mice using the tail flick assay, in accord with the procedure of A. E. Takemor, et al., J. Pharmacol. Exp. Ther., 243, 91 (1987). At least three groups of ten mice were used to generate dose-response curves. A mouse was regarded as positive for antinociception if the latency to flick its tail was more than the control latency plus 3 S.D. of the mean reaction time of the group. The reaction times were determined at the peak time for antinociception after administration of various agonists. Intra-cerebroventricular (i.c.v.) injections were made in a volume of 5 μl by the method of T. J. Haley et al., Br. J. Pharmacol., 12, 12 (1957).\n(§2) On Table III, the potencies are expressed as ED50 ratios, which represent the ED50 of the standard agonist administered subcutaneously in the presence of BNTX (6.25 pmoL/i.c.v./mouse), divided by the ED50 of the standard agonist."}, "[2]": {"target": "T2, delta opioid receptor (δ; printed δ1 for DADLE in Table III) (Mus musculus, UniProt P32300)", "T2 construct": "Both vasa deferentia were dissected out of mice; from tissue; host or cells: mouse vas deferens", "T2 sequence (P32300 whole entry)": "as above", "test": "Mouse vas deferens (MVD) smooth muscle, antagonism of DADLE", "assay_type": "cell-based", "settings": "data of Table II, MVD/GPI", "procedure": "This assay was performed according to the description by G. Henderson et al., Brit. J. Pharmacol., 46, 764 (1972). […] The organ bath was maintained at 37° C.\nConcentration-response curves were obtained in the absence (control) and the presence of the antagonist are expressed as IC50 values. […] Therefore, a high IC50 ratio represents a correspondingly high degree of antagonism at a particular receptor. […] Therefore, a low Ke represents a correspondingly high degree of binding at a particular receptor."}, "[3]": {"target": "T3, κ opioid receptor (Mus musculus, UniProt P33534)", "T3 construct": "from tissue; host or cells: live mouse (BNTX i.c.v.)", "T3 sequence (P33534 whole entry)": "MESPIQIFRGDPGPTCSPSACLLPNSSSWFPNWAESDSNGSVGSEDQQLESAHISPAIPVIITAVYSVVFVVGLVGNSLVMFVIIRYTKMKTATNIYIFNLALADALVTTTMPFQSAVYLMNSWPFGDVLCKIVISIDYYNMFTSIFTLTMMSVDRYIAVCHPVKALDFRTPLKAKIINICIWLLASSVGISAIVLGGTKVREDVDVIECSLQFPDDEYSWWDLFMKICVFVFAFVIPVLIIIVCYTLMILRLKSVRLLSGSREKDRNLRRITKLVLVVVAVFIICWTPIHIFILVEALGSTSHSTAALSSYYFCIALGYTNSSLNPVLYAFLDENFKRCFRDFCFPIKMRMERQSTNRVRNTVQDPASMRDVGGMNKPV", "test": "Mouse tail flick antinociception, antagonism of U50488H (κ agonist)", "assay_type": "in vivo", "settings": "BNTX 6.25 pmol/i.c.v./mouse", "procedure": "as §1, §2"}, "[4]": {"target": "T4, μ opioid receptor (Mus musculus, UniProt P42866)", "T4 construct": "from tissue; host or cells: live mouse (BNTX i.c.v.)", "T4 sequence (P42866 whole entry)": "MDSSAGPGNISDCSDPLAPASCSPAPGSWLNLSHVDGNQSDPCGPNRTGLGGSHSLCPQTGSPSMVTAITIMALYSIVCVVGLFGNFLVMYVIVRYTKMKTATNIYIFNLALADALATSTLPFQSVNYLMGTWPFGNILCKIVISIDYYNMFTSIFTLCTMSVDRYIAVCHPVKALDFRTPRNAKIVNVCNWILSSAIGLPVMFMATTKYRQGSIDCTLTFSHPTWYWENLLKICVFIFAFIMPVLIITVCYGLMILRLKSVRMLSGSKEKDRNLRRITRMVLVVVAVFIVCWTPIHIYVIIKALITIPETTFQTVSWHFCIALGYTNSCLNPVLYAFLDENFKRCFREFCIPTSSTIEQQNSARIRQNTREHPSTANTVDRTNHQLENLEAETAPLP", "test": "Mouse tail flick antinociception, antagonism of mu agonist", "assay_type": "in vivo", "settings": "BNTX 6.25 pmol/i.c.v./mouse", "procedure": "as §1, §2"}, "[5]": {"system": "δ1 receptors", "assay_type": "binding", "settings": "guinea pig brain membranes", "procedure": "Therefore, a better assessment of the δ subtype selectivity can be obtained from binding of brain membranes and from antagonism studies in mice. The binding of BNTX to guinea pig brain membranes was determined using the general method of L. L. Werling et al., J. Pharmacol. Exp. Ther., 233, 722 (1985), as modified by A. E. Takemori et al., J. Pharmacol. Exp. Ther., 246, 255 (1988). The radio-ligands employed were [^3 H]DPDPE ([D-Pen ^2, D-Pen^5 ] enkephalin) for δ1 receptors, [^3 H]DSLET([D-Ser^2 -Leu^5 ]enkephalin-Thr^6) for δ^2 receptors, [3H]DAMGO for μ receptors and U69593(trans-(+)-3,4-dichloro-N-methyl-N-[2-(1-pyrididinyl)cyclohexyl]benzeneacetamide) for κ receptors."}, "[6]": {"system": "ethanol drinking", "settings": "rats bred for high voluntary ethanol drinking; application Ser. No. 07/750,109; cited from earlier work"}, "[7]": {"system": "ethanol drinking", "settings": "in vivo; cited from earlier work"}, "[8]": {"system": "alcohol relapse in recovering alcoholics", "settings": "cited from earlier work"}, "[9]": {"system": "ethanol intake", "settings": "rat model of alcoholism; cited from earlier work"}}, "note": "Square brackets hold non-standard residues; d marks the D form. Peptide text beside a SMILES is read from it. * marks the point of attachment. Tyr(Nα,Nα-allyl2) = C=CCN(CC=C)[C@@H](Cc1ccc(O)cc1)C(=O)*; Aib = CC(C)(N)C(=O)O", "data": [{"smiles": "O=C1C(=Cc2ccccc2)C[C@@]2(O)[C@H]3Cc4ccc(O)c5c4[C@@]2(CCN3CC2CC2)[C@H]1O5", "note": "[BNTX, 7-Benzylidene-7-dehydronaltrexone]", "values": [{"measurement": "shift of dose-response curve, DSLET", "setting": "[1]; words", "value": "not shifted significantly"}, {"measurement": "ED50 Ratio (\"Potency Ratio\"), DSLET (δ2)", "setting": "[1]; ED50 of DSLET in presence of BNTX / ED50 of agonist", "value": 0.91}, {"measurement": "selectivity (smooth muscle, words)", "setting": "[2]", "value": "δ-selective antagonist"}, {"measurement": "shift of dose-response curve, U50488H", "setting": "[3]; words", "value": "not shifted significantly"}, {"measurement": "ED50 Ratio (\"Potency Ratio\"), U50488H (κ)", "setting": "[3]; ED50 of U50488H in presence of BNTX / ED50 of agonist", "value": 1.2}, {"measurement": "shift of dose-response curve, morphine", "setting": "[4]; words", "value": "not shifted significantly"}, {"measurement": "ED50 Ratio (\"Potency Ratio\"), DAMGO (μ)", "setting": "[4]; ED50 of DAMGO (so in the source) in presence of BNTX / ED50 of agonist", "value": 0.88}, {"measurement": "selectivity (binding, words)", "setting": "[5]", "value": "highly selective for δ1 receptor sites"}]}, {"smiles": "Oc1ccc2c3c1O[C@H]1c4oc5ccccc5c4C[C@@]4(O)[C@@H](C2)N(CC2CC2)CC[C@]314", "note": "[NTB]", "values": [{"measurement": "suppression of ethanol drinking / water intake", "setting": "[6]", "value": "unexpectedly prolonged suppression of ethanol drinking without altering water intake"}]}, {"smiles": "C=CCN(CC=C)[C@@H](Cc1ccc(O)cc1)C(=O)NC(C)(C)C(=O)NC(C)(C)C(=O)N[C@@H](Cc1ccccc1)C(=O)N[C@@H](CC(C)C)C(=O)O", "note": "[ICI 174864, N,N-diallyl-Tyr-Aib-Aib-Phe-Leu-OH] ({Tyr(Nα,Nα-allyl2)}-[Aib][Aib]FL-OH)", "values": [{"measurement": "duration of action", "setting": "[7]", "value": "very short duration of action"}, {"measurement": "ethanol drinking", "setting": "[7]", "value": "strongly inhibits ethanol drinking"}]}, {"smiles": "Oc1ccc2c3c1O[C@H]1c4[nH]c5ccccc5c4C[C@@]4(O)[C@@H](C2)N(CC2CC2)CC[C@]314", "note": "[NTI]", "values": [{"measurement": "suppression of ethanol drinking / water intake", "setting": "[6]", "value": "unexpectedly prolonged suppression of ethanol drinking without altering water intake"}]}, {"smiles": "O=C1CC[C@@]2(O)[C@H]3Cc4ccc(O)c5c4[C@@]2(CCN3CC2CC2)[C@H]1O5", "note": "[Naltrexone, naltrexone]", "values": [{"measurement": "incidence of relapse in recovering alcoholics", "setting": "[8]", "value": "reduce the incidence of relapse in recovering alcoholics"}]}, {"smiles": "C=CCN1CC[C@]23c4c5ccc(O)c4O[C@H]2C(=O)CC[C@@]3(O)[C@H]1C5", "note": "[Naloxone, naloxone]", "values": [{"measurement": "ethanol and water intake", "setting": "[9]", "value": "suppress ethanol but not water intake"}]}]}
